Test results: patent publication US8017612B2, “Piperazine compound and use thereof as a HCV polymerase inhibitor” (priority 2006, dated 2011)
Counter-ions that a name gives are not always drawn.

How the values were obtained:
[1] = biological target: T1, HCV polymerase (NS5B) type 1b (Hepatitis C virus genotype 1b, UniProt P26663); assay: Assay of enzyme (HCV polymerase) inhibitory activity, type 1b enzyme; assay type: biochemical, HCV BK strain (type 1b); conditions: HCV polymerase inhibitory activity (IC50), 1b, type 1b enzyme 0.5 μg/ml, 25° C., 60 min
T1 construct: a region encoding NS5B (J Virol 1991 March, 65(3), 1105-13, 544 amino acids after deletion of 47 amino acids on the C-terminal); 6xHis (C); made in house; host or cells: Escherichia coli
Outline: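 Polymerase activity was followed as radiolabelled UTP incorporation by E. coli-expressed, His-tagged NS5B of HCV type 1b lacking its last 47 residues. Conditions: 2 μM UTP, 50 μM other NTPs, Mg2+ buffer at pH 7.5, 25 °C for 60 min. Inhibition relative to compound-free reactions gave IC50.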

[2] = biological target: T2, HCV polymerase (NS5B) type 1a (Hepatitis C virus genotype 1a, UniProt P26664); assay: Assay of enzyme (HCV polymerase) inhibitory activity, type 1a enzyme; assay type: biochemical, HCV type 1a (cloned from the blood of patients); conditions: HCV polymerase inhibitory activity (IC50), 1a, type 1a enzyme 1.5 μg/ml, 25° C., 60 min
T2 construct: made in house; host or cells: Escherichia coli (by the 'similar method' of the 1b enzyme)
Outline: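 IC50 values derive from radioactivity of newly synthesized RNA with versus without test compound. The enzyme was C-terminally truncated type 1a NS5B, 1.5 μg/ml, run 60 min at 25° C with 3H-UTP-labelled nucleotides.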

SMILES | IC50 [1] [nM] | IC50 [2] [nM]
CC(=O)N1CCN(S(=O)(=O)c2ccc(C(C)C)cc2)C(C(=O)NCc2ccc(N3CCN(C)CC3)cc2)C1 (centres unmarked) [Example 81, 4-acetyl-1-(4-isopropyl-benzenesulfonyl)-piperazine-2-carboxylic acid 4-(4-methyl-piperazin-1-yl)-benzylamide] | > 1000 | > 1000
CN(C)c1ccc(CNC(=O)C2CN(C(=O)OC(C)(C)C)CCN2S(=O)(=O)c2ccc(I)cc2)cc1 (centres unmarked) [Example 82, 3-(4-dimethylamino-benzylcarbamoyl)-4-(4-iodo-benzenesulfonyl)-piperazine-1-carboxylic acid tert-butyl ester] | > 1000 | > 1000
CC(=O)N1CCN(S(=O)(=O)c2ccc(OC(C)C)cc2)C(C(=O)NCc2ccc(C(F)(F)F)cc2)C1 (centres unmarked) [Example 83, 4-acetyl-1-(4-isopropoxy-benzenesulfonyl)-piperazine-2-carboxylic acid 4-trifluoromethyl-benzylamide] | > 1000 | > 1000
CN(C)c1ccc(CNC(=O)C2CNCCN2S(=O)(=O)c2ccc(I)cc2)cc1 (centres unmarked) [Example 84, 1-(4-iodo-benzenesulfonyl)-piperazine-2-carboxylic acid 4-dimethylamino-benzylamide hydrochloride] | > 1000 | > 1000
CC(=O)N1CCN(S(=O)(=O)c2ccc(I)cc2)C(C(=O)NCc2ccc(N(C)C)cc2)C1 (centres unmarked) [Example 85, 4-acetyl-1-(4-iodo-benzenesulfonyl)-piperazine-2-carboxylic acid 4-dimethylamino-benzylamide] | > 1000 | 100 to 1000
CN(C)c1ccc(CNC(=O)C2CN(C(=O)CNC(=O)OC(C)(C)C)CCN2S(=O)(=O)c2ccc(I)cc2)cc1 (centres unmarked) [Example 86, {2-[3-(4-dimethylamino-benzylcarbamoyl)-4-(4-iodo-benzenesulfonyl)-piperazin-1-yl]-2-oxo-ethyl}-carbamic acid tert-butyl ester] | > 1000 | > 1000
CN(C)c1ccc(CNC(=O)C2CN(C(=O)CCNC(=O)OC(C)(C)C)CCN2S(=O)(=O)c2ccc(I)cc2)cc1 (centres unmarked) [Example 87, {3-[3-(4-dimethylamino-benzylcarbamoyl)-4-(4-iodo-benzenesulfonyl)-piperazin-1-yl]-3-oxo-propyl}-carbamic acid tert-butyl ester] | > 1000 | > 1000
CN(C)c1ccc(CNC(=O)C2CN(C(=O)CN)CCN2S(=O)(=O)c2ccc(I)cc2)cc1 (centres unmarked) [Example 88, 4-(2-amino-acetyl)-1-(4-iodo-benzenesulfonyl)-piperazine-2-carboxylic acid 4-dimethylamino-benzylamide hydrochloride] | > 1000 | > 1000
CN(C)c1ccc(CNC(=O)C2CN(C(=O)CCN)CCN2S(=O)(=O)c2ccc(I)cc2)cc1 (centres unmarked) [Example 89, 4-(3-amino-propionyl)-1-(4-iodo-benzenesulfonyl)-piperazine-2-carboxylic acid 4-dimethylamino-benzylamide hydrochloride] | > 1000 | > 1000
CC(=O)N1CCN(S(=O)(=O)c2ccc(C(C)C)cc2)C(C(=O)NCc2ccc(N)cc2)C1 (centres unmarked) [Example 90, 4-acetyl-1-(4-isopropyl-benzenesulfonyl)-piperazine-2-carboxylic acid 4-amino-benzylamide] | > 1000 | > 1000
CCCCc1ccc(S(=O)(=O)N2CCN(C(C)=O)CC2C(=O)NCc2ccc(C(F)(F)F)cc2)cc1 (centres unmarked) [Example 91, 4-acetyl-1-(4-butyl-benzenesulfonyl)-piperazine-2-carboxylic acid 4-trifluoromethyl-benzylamide] | > 1000 | > 1000
CC(=O)N1CCN(S(=O)(=O)c2ccc(N(C)C)cc2)C(C(=O)NCc2ccc(C(F)(F)F)cc2)C1 (centres unmarked) [Example 92, 4-acetyl-1-(4-dimethylamino-benzenesulfonyl)-piperazine-2-carboxylic acid 4-trifluoromethyl-benzylamide] | > 1000 | > 1000
CC(=O)N1CCN(S(=O)(=O)c2ccc(N)cc2)C(C(=O)NCc2ccc(C(F)(F)F)cc2)C1 (centres unmarked) [Example 93, 4-acetyl-1-(4-amino-benzenesulfonyl)-piperazine-2-carboxylic acid 4-trifluoromethyl-benzylamide hydrochloride] | > 1000 | > 1000
COC(=O)CN1CCN(S(=O)(=O)c2ccc(I)cc2)C(C(=O)NCc2ccc(N(C)C)cc2)C1 (centres unmarked) [Example 94, [3-(4-dimethylamino-benzylcarbamoyl)-4-(4-iodo-benzenesulfonyl)-piperazin-1-yl]-acetic acid methyl ester] | > 1000 | > 1000
CN(C)CC(=O)N1CCN(S(=O)(=O)c2ccc(I)cc2)C(C(=O)NCc2ccc(N(C)C)cc2)C1 (centres unmarked) [Example 95, 4-(2-dimethylamino-acetyl)-1-(4-iodo-benzenesulfonyl)-piperazine-2-carboxylic acid 4-dimethylamino-benzylamide] | > 1000 | > 1000
CN(C)c1ccc(CNC(=O)C2CN(CC(=O)O)CCN2S(=O)(=O)c2ccc(I)cc2)cc1 (centres unmarked) [Example 96, [3-(4-dimethylamino-benzylcarbamoyl)-4-(4-iodo-benzenesulfonyl)-piperazin-1-yl]-acetic acid] | > 1000 | > 1000
CCC(C)(C)c1ccc(S(=O)(=O)N2CCN(C(C)=O)CC2C(=O)NCc2ccc(C(F)(F)F)cc2)cc1 (centres unmarked) [Example 97, 4-acetyl-1-[4-(1,1-dimethyl-propyl)-benzenesulfonyl]-piperazine-2-carboxylic acid 4-trifluoromethyl-benzylamide] | > 1000 | > 1000
CC(=O)N1CCN(S(=O)(=O)c2ccc(C(C)C)cc2)C(C(=O)NCc2ccc(NC(=O)C(C)(C)C)cc2)C1 (centres unmarked) [Example 98, 4-acetyl-1-(4-isopropyl-benzenesulfonyl)-piperazine-2-carboxylic acid 4-(2,2-dimethyl-propionylamino)-benzylamide] | > 1000 | > 1000
CC(=O)N1CCN(S(=O)(=O)c2ccc(C(C)C)cc2)C(C(=O)NCc2ccc(C(=O)O)cc2)C1 (centres unmarked) [Example 99, 4-({[4-acetyl-1-(4-isopropyl-benzenesulfonyl)-piperazine-2-carbonyl]-amino}-methyl)-benzoic acid] | > 1000 | > 1000
CC(=O)N1CCN(S(=O)(=O)c2ccc(C(C)C)cc2)C(C(=O)NCc2ccc(Cl)c(Cl)c2)C1 (centres unmarked) [Example 100, 4-acetyl-1-(4-isopropyl-benzenesulfonyl)-piperazine-2-carboxylic acid 3,4-dichloro-benzylamide] | > 1000 | > 1000
CC(=O)N1CCN(S(=O)(=O)c2ccc(C(C)C)cc2)C(C(=O)NCc2ccc(Cl)cc2Cl)C1 (centres unmarked) [Example 101, 4-acetyl-1-(4-isopropyl-benzenesulfonyl)-piperazine-2-carboxylic acid 2,4-dichloro-benzylamide] | > 1000 | > 1000
CN(C)c1ccc(CNC(=O)C2CN(C(=O)CN3CCCCC3)CCN2S(=O)(=O)c2ccc(I)cc2)cc1 (centres unmarked) [Example 102, 1-(4-iodo-benzenesulfonyl)-4-(2-piperidin-1-yl-acetyl)-piperazine-2-carboxylic acid 4-dimethylamino-benzylamide] | > 1000 | > 1000
